Measurements from patent publication US20230081426A1, “COMPOUNDS AND METHODS FOR KRAS MODULATION AND INDICATIONS THEREFOR” (Plexxikon Inc., priority 2020, published 2023).

Assays:
[1] = molecular target: T1, G12V-mutant human KRAS (amino acid residues 1-188) (Homo sapiens, UniProt P01116, G12V); test: KRAS Binding Competition Assay (AlphaScreen; biotinylated KRpep-2d analogue), G12V; settings: geometric mean, read-out: KRAS GMean IC50 (uM) MUTATION: G12V
T1 construct: G12V-mutant human KRAS (amino acid residues 1-188) with FLAG tag was purified from E. coli; made in house; host or cells: E. coli
Protocol: Compound binding disrupts the interaction of KRpep-2d with KRAS, leading to a decrease in Alpha signal.
All assay components were prepared in 20 mM HEPES (pH 7.5), 100 mM NaCl, 5 mM MgCl2, 0.01% Tween-20, and 0.01% BSA. Biotinylated analogues of KRpep-2d were custom synthesized. The binding competition assays were performed using 10 nM of mutant KRAS and 10 nM of biotinylated KRpep-2d analogue. 19 μL of KRAS protein and 4 μL of biotinylated KRpep-2d were added to the wells of a 384-well plate containing 1 μL of various concentrations of test compound or DMSO vehicle. 16 wells containing KRAS, biotinylated KRpep-2d, and 5% DMSO served as high controls. 16 wells containing KRAS only and 5% DMSO served as low controls. Binding reactions were incubated for 1 hour at 25° C., then Anti-Flag Acceptor and Streptavidin Donor Alpha beads were added at a final concentration of 10 μg/mL for an additional hour at room temperature. Alpha signal was read out on a Perkin Elmer Envision HTS instrument. The percentage inhibition at individual compound concentrations relative to high and low controls was calculated. The data were analyzed by using nonlinear regression to generate IC50 values.

[2] = molecular target: T2, G12D-mutant human KRAS (amino acid residues 1-188) (Homo sapiens, UniProt P01116, G12D); test: KRAS Binding Disruption Assay (AlphaScreen; biotinylated KRpep-2d analogue or RAF1-RBD), G12D; settings: KRAS G12D; geometric mean; read-out: KRAS GMean IC50 (uM) MUTATION: G12D
T2 construct: G12D or G12C-mutant human KRAS (amino acid residues 1-188) with FLAG tag; made in house; host or cells: E. coli
Summary of the method: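 Mutant KRAS (5-20 nM) incubated 1 h at 25° C with test compound and 5-20 nM biotinylated KRpep-2d analogue or RAF1-RBD in 20 mM HEPES pH 7.5, 100 mM NaCl, 5 mM MgCl2, 0.01% Tween-20, 0.01% BSA.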

| Structure (SMILES) | IC50 [1] [µM] | IC50 [2] [µM] |
| --- | --- | --- |
| CN1CCC[C@H]1COc1nc(N2C[C@H]3CC[C@@H](C2)N3)c2ccc(-c3c[nH]c4cccc(Cl)c34)c(F)c2n1 [P-0294, 4-((1R,5S)-3,8-diazabicyclo[3.2.1]octan-3-yl)-7-(4-chloro-1H-indol-3-yl)-8-fluoro-2-(((S)-1-methylpyrrolidin-2-yl)methoxy)quinazoline] | 10 to 100 | 10 to 100 |
| CN1CCC[C@H]1COc1nc(N2[C@@H]3CC[C@H]2CN(C(=O)CC(=O)O)C3)c2ccc(-c3cc(O)cc4ccccc34)cc2n1 [P-0324, 3-((1R,5S)-8-(7-(3-hydroxynaphthalen-1-yl)-2-(((S)-1-methylpyrrolidin-2-yl)methoxy)quinazolin-4-yl)-3,8-diazabicyclo[3.2.1]octan-3-yl)-3-oxopropanoic acid] | 10 to 100 | 100 to 1000 |
| CN1CCC[C@H]1COc1nc(N2[C@@H]3CC[C@H]2CN(C(=N)NC#N)C3)c2ccc(-c3cc(O)cc4ccccc34)cc2n1 [P-0349, (1R,5S)-N-cyano-8-(7-(3-hydroxynaphthalen-1-yl)-2-(((S)-1-methylpyrrolidin-2-yl)methoxy)quinazolin-4-yl)-3,8-diazabicyclo[3.2.1]octane-3-carboximidamide] | 0.0001 to 10 | 10 to 100 |
| CN1CC[C@@H](NC(=O)N2C3COCC2CN(c2nc(OC[C@@H]4CCCN4C)nc4c(F)c(-c5cc(O)cc6ccccc56)ccc24)C3)C1 [P-0250, 7-(8-fluoro-7-(3-hydroxynaphthalen-1-yl)-2-(((S)-1-methylpyrrolidin-2-yl)methoxy)quinazolin-4-yl)-N-((R)-1-methylpyrrolidin-3-yl)-3-oxa-7,9-diazabicyclo[3.3.1]nonane-9-carboxamide] | 0.0001 to 10 | 0.0001 to 10 |
| CC(C)(COc1nc(N2C[C@H]3CC[C@@H](C2)N3)c2ccc(-c3cc(O)cc4ccccc34)c(F)c2n1)NC(N)=O [P-0619, 1-(1-((4-((1R,5S)-3,8-diazabicyclo[3.2.1]octan-3-yl)-8-fluoro-7-(3-hydroxynaphthalen-1-yl)quinazolin-2-yl)oxy)-2-methylpropan-2-yl)urea] | 10 to 100 | 0.0001 to 10 |
| Cc1cccc2cc(O)cc(-c3ccc4c(N5C[C@H]6CC[C@@H](C5)N6)nc(OC[C@@H]5CCCN5C)nc4c3F)c12 [P-0073, 4-(4-((1R,5S)-3,8-diazabicyclo[3.2.1]octan-3-yl)-8-fluoro-2-(((S)-1-methylpyrrolidin-2-yl)methoxy)quinazolin-7-yl)-5-methylnaphthalen-2-ol] | 0.0001 to 10 | 0.0001 to 10 |
| CN1CCC[C@H]1COc1nc(N2C[C@H]3CC[C@@H](C2)N3C(=O)[C@@H](N)CO)c2ccc(-c3cc(O)cc4ccccc34)c(F)c2n1 [P-0424, (S)-2-amino-1-((1R,5S)-3-(8-fluoro-7-(3-hydroxynaphthalen-1-yl)-2-(((S)-1-methylpyrrolidin-2-yl)methoxy)quinazolin-4-yl)-3,8-diazabicyclo[3.2.1]octan-8-yl)-3-hydroxypropan-1-one] | 10 to 100 | 0.0001 to 10 |
| CN1CCC[C@H]1COc1nc(N2C[C@H]3CC[C@@H](C2)N3)c2ccc(-c3c(F)ccc4[nH]ccc34)cc2n1 [P-0184, 4-((1R,5S)-3,8-diazabicyclo[3.2.1]octan-3-yl)-7-(5-fluoro-1H-indol-4-yl)-2-(((S)-1-methylpyrrolidin-2-yl)methoxy)quinazoline] | 100 to 1000 | 10 to 100 |
| C[C@@H](Oc1nc(N2C[C@H]3CC[C@@H](C2)N3)c2ccc(-c3cc(O)cc4ccccc34)cc2n1)[C@@H]1CCCN1C [P-0245, 4-(4-((1R,5S)-3,8-diazabicyclo[3.2.1]octan-3-yl)-2-((R)-1-((S)-1-methylpyrrolidin-2-yl)ethoxy)quinazolin-7-yl)naphthalen-2-ol] | 0.0001 to 10 | 0.0001 to 10 |
| O=C(Cc1n[nH]c2ccccc12)N1[C@@H]2CC[C@H]1CN(c1nc(OCC34CCCN3CCC4)nc3c(F)c(-c4cc(O)cc5ccccc45)ccc13)C2 [P-0433, 1-((1R,5S)-3-(8-fluoro-7-(3-hydroxynaphthalen-1-yl)-2-((tetrahydro-1H-pyrrolizin-7a(5H)-yl)methoxy)quinazolin-4-yl)-3,8-diazabicyclo[3.2.1]octan-8-yl)-2-(1H-indazol-3-yl)ethan-1-one] | 0.0001 to 10 | 0.0001 to 10 |
| CN1CCC[C@H]1COc1nc(N2C[C@H]3CC[C@@H](C2)N3)c2cc(F)c(N3CCNc4ccccc43)c(F)c2n1 [P-0305, 4-((1R,5S)-3,8-diazabicyclo[3.2.1]octan-3-yl)-7-(3,4-dihydroquinoxalin-1(2H)-yl)-6,8-difluoro-2-(((S)-1-methylpyrrolidin-2-yl)methoxy)quinazoline] | 10 to 100 | 0.0001 to 10 |
| Cc1c(N)cccc1-c1ccc2c(N3C[C@H]4CC[C@@H](C3)N4)nc(OC[C@@H]3CCCN3C)nc2c1 [P-0341, 3-(4-((1R,5S)-3,8-diazabicyclo[3.2.1]octan-3-yl)-2-(((S)-1-methylpyrrolidin-2-yl)methoxy)quinazolin-7-yl)-2-methylaniline] | 10 to 100 | 100 to 1000 |
| CN1CCC[C@H]1COc1nc(N2[C@@H]3CC[C@H]2CN(C(=O)NC2CN4CCC2CC4)C3)c2ccc(-c3cc(O)cc4ccccc34)cc2n1 (stereo partly drawn) [P-0208, (1R,5S)-8-(7-(3-hydroxynaphthalen-1-yl)-2-(((S)-1-methylpyrrolidin-2-yl)methoxy)quinazolin-4-yl)-N-(quinuclidin-3-yl)-3,8-diazabicyclo[3.2.1]octane-3-carboxamide] | 10 to 100 | 0.0001 to 10 |
| CNCC(=O)N1C[C@H]2CC[C@@H](C1)N2c1nc(OC[C@@H]2CCCN2C)nc2cc(-c3cc(O)cc4ccccc34)ccc12 [P-0206, 1-((1R,5S)-8-(7-(3-hydroxynaphthalen-1-yl)-2-(((S)-1-methylpyrrolidin-2-yl)methoxy)quinazolin-4-yl)-3,8-diazabicyclo[3.2.1]octan-3-yl)-2-(methylamino)ethan-1-one] | 10 to 100 | 10 to 100 |
| CN(C)c1cccc(CCc2nc(N3C[C@H]4CC[C@@H](C3)N4)c3cc(Cl)c(-c4c(O)cccc4F)c(F)c3n2)c1 [P-0363, 2-(4-((1R,5S)-3,8-diazabicyclo[3.2.1]octan-3-yl)-6-chloro-2-(3-(dimethylamino)phenethyl)-8-fluoroquinazolin-7-yl)-3-fluorophenol] | 0.0001 to 10 | 0.0001 to 10 |
| CN1CCC[C@H]1COc1nc(N2C[C@H]3CC[C@@H](C2)N3)c2ccc(-c3c(Cl)ccc4[nH]ccc34)cc2n1 [P-0236, 4-((1R,5S)-3,8-diazabicyclo[3.2.1]octan-3-yl)-7-(5-chloro-1H-indol-4-yl)-2-(((S)-1-methylpyrrolidin-2-yl)methoxy)quinazoline] | 10 to 100 | 10 to 100 |
| CN1CCC[C@H]1COc1nc(N2C[C@H]3CC[C@@H](C2)N3)c2ccc(-c3c[nH]c4ncccc34)cc2n1 [P-0175, 4-((1R,5S)-3,8-diazabicyclo[3.2.1]octan-3-yl)-2-(((S)-1-methylpyrrolidin-2-yl)methoxy)-7-(1H-pyrrolo[2,3-b]pyridin-3-yl)quinazoline] | 10 to 100 | 100 to 1000 |
| CN1CCC[C@H]1COc1nc(N2C[C@H]3CC[C@@H](C2)N3)c2ccc(-c3cc(N)c(Cl)cc3Cl)cc2n1 [P-0157, 5-(4-((1R,5S)-3,8-diazabicyclo[3.2.1]octan-3-yl)-2-(((S)-1-methylpyrrolidin-2-yl)methoxy)quinazolin-7-yl)-2,4-dichloroaniline] | 100 to 1000 | 10 to 100 |
| CN1CCC[C@H]1COc1nc(N2C[C@H]3CC[C@@H](C2)N3CC(=O)Nc2ccccn2)c2ccc(-c3cc(O)cc4ccccc34)c(F)c2n1 [P-0475, 2-((1R,5S)-3-(8-fluoro-7-(3-hydroxynaphthalen-1-yl)-2-(((S)-1-methylpyrrolidin-2-yl)methoxy)quinazolin-4-yl)-3,8-diazabicyclo[3.2.1]octan-8-yl)-N-(pyridin-2-yl)acetamide] | 10 to 100 | 0.0001 to 10 |
| CC(=O)Nc1cncc(-c2ccc3c(N4C[C@H]5CC[C@@H](C4)N5)nc(OC[C@@H]4CCCN4C)nc3c2)c1 [P-0160, N-(5-(4-((1R,5S)-3,8-diazabicyclo[3.2.1]octan-3-yl)-2-(((S)-1-methylpyrrolidin-2-yl)methoxy)quinazolin-7-yl)pyridin-3-yl)acetamide] | 100 to 1000 | 100 to 1000 |
| CN(C)CCNS(=O)(=O)N1[C@@H]2CC[C@H]1CN(c1nc(OCC34CCCN3CCC4)nc3c(F)c(-c4cc(O)cc5ccccc45)ccc13)C2 [P-0280, (1R,5S)-N-(2-(dimethylamino)ethyl)-3-(8-fluoro-7-(3-hydroxynaphthalen-1-yl)-2-((tetrahydro-1H-pyrrolizin-7a(5H)-yl)methoxy)quinazolin-4-yl)-3,8-diazabicyclo[3.2.1]octane-8-sulfonamide] | 0.0001 to 10 | 0.0001 to 10 |
